# Experimental data taken from ChEMBL document CHEMBL1201862, “PubChem BioAssay data set” (2004).
# Several values for one entry are separate records, joined by “and”; a condition that tells them apart may be missing. Equal values may be shown once. Activity calls are given as the source filed them.
# Experiments:
# [1] = target: T1, Heat shock factor protein 1 (Mus musculus, UniProt P38532); test: decrease of HSF1-responsive luciferase luminescence – cell-based, NIH3T3, dose retest, confirmation (AID 2382); assay type: functional;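 further: NIH3T3 fibroblasts with HSF1-driven luciferase reporter stressed by proteasome inhibitor MG132; luminescence from HSF1-driven luciferase expression after 8 hours of MG132 stress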
# T1 sequence (P38532 whole entry): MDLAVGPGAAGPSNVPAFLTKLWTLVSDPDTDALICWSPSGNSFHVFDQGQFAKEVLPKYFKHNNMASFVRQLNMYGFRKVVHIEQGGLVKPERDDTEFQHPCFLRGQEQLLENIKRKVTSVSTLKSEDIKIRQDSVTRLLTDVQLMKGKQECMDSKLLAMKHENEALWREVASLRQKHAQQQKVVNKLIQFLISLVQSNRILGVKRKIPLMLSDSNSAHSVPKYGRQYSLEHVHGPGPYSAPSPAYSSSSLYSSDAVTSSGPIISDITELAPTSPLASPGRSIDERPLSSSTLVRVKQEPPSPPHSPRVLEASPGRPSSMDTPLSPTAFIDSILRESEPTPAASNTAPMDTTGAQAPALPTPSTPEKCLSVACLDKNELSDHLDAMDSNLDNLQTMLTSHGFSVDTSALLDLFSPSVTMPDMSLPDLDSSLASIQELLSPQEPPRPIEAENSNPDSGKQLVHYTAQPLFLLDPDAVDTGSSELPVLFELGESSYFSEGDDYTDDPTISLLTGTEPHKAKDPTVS
# Protein skinhead-1 = target: T2, Protein skinhead-1 (Caenorhabditis elegans, UniProt P34707); assay type: functional
# T2 sequence (P34707 whole entry): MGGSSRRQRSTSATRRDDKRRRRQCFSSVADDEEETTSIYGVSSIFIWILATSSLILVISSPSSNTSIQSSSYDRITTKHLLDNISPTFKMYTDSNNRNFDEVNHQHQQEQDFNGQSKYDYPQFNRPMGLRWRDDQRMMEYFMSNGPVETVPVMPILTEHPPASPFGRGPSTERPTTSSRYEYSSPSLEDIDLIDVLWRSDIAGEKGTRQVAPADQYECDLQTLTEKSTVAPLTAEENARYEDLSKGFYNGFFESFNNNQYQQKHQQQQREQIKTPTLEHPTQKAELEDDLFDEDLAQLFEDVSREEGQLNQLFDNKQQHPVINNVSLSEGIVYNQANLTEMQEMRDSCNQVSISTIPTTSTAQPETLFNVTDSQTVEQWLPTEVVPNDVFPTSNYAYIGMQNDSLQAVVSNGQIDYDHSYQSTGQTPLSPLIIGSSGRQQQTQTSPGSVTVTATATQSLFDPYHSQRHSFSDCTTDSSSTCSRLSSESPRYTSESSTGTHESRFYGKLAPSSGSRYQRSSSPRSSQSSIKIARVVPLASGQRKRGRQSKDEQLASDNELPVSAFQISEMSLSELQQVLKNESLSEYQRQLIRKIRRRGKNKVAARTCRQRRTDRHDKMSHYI
# [2] = target: FAD-linked sulfhydryl oxidase ALR (Homo sapiens, UniProt P55789); test: ALR-catalysed DTT oxidation blockers – biochemical, H2O2 detection, luminescence, cherry-pick, dose response (AID 493248)
# FAD-linked sulfhydryl oxidase ALR, sequence (P55789 whole entry): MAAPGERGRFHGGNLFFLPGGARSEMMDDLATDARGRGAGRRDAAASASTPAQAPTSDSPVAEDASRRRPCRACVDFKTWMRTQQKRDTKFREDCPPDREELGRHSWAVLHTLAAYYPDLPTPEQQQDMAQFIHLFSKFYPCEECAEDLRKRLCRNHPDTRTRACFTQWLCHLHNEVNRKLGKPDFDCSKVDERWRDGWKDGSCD
# Cytochrome P450 2D6 = Cytochrome P450 2D6 (Homo sapiens, UniProt P10635);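 further: CYP2D6 member of a cytochrome P450 panel assay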
# Cytochrome P450 2D6, sequence (P10635 whole entry): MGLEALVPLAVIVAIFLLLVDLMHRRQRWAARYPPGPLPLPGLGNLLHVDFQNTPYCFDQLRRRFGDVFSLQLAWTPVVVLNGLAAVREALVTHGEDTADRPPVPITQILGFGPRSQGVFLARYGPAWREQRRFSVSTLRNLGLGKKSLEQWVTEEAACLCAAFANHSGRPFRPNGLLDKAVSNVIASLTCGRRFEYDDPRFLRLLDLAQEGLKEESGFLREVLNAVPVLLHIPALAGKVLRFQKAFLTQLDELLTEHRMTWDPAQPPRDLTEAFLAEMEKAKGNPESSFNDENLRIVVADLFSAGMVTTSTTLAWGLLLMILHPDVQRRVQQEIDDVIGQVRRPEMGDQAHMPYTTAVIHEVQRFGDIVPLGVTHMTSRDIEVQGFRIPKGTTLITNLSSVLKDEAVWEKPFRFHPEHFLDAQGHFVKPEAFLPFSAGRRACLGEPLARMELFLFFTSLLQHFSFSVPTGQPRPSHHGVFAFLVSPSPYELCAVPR
# Cytochrome P450 2C9 = Cytochrome P450 2C9 (Homo sapiens, UniProt P11712)
# Cytochrome P450 2C9, sequence (P11712 whole entry): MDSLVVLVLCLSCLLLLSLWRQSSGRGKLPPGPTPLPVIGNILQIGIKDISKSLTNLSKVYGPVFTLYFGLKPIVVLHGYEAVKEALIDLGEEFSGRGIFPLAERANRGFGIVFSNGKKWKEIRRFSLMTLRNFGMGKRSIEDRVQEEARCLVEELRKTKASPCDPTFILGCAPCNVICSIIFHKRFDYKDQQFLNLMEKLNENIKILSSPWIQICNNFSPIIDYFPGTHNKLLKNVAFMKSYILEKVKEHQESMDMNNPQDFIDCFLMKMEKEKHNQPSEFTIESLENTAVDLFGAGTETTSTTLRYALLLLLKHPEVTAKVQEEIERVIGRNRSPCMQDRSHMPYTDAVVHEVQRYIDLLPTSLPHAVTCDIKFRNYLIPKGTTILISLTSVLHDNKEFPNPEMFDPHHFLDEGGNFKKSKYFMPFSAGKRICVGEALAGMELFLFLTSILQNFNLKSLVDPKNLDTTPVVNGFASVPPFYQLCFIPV
# Cytochrome P450 1A2 = target: T3, Cytochrome P450 1A2 (Homo sapiens, UniProt P05177);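 further: PubChem cytochrome P450 panel assay, CYP1A2 panel member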
# T3 sequence (P05177 whole entry): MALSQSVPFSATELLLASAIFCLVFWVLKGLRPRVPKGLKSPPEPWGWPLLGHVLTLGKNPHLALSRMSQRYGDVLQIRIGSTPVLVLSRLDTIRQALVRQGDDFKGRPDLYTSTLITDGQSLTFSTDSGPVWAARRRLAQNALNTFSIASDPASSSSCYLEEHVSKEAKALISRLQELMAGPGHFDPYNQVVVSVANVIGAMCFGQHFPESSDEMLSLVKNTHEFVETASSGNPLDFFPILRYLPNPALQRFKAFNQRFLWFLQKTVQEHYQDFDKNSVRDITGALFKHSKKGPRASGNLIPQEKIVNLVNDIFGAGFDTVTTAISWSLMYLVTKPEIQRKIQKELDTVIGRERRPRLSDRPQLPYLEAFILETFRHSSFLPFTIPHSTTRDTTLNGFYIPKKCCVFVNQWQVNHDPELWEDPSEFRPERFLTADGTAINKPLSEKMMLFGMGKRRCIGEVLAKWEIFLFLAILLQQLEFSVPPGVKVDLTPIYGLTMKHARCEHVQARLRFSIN
# [3] = target: T4, Short transient receptor potential channel 4 (Mus musculus, UniProt Q9QUQ5); test: block of DAMGO-driven TRPC4 calcium entry – cell-based, HEK293 TRPC4/mu-opioid, Fluo-4 calcium, dose response (AID 434942); assay type: functional;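 further: potency of inhibitors blocking the TRPC4 calcium response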
# T4 sequence (Q9QUQ5 whole entry): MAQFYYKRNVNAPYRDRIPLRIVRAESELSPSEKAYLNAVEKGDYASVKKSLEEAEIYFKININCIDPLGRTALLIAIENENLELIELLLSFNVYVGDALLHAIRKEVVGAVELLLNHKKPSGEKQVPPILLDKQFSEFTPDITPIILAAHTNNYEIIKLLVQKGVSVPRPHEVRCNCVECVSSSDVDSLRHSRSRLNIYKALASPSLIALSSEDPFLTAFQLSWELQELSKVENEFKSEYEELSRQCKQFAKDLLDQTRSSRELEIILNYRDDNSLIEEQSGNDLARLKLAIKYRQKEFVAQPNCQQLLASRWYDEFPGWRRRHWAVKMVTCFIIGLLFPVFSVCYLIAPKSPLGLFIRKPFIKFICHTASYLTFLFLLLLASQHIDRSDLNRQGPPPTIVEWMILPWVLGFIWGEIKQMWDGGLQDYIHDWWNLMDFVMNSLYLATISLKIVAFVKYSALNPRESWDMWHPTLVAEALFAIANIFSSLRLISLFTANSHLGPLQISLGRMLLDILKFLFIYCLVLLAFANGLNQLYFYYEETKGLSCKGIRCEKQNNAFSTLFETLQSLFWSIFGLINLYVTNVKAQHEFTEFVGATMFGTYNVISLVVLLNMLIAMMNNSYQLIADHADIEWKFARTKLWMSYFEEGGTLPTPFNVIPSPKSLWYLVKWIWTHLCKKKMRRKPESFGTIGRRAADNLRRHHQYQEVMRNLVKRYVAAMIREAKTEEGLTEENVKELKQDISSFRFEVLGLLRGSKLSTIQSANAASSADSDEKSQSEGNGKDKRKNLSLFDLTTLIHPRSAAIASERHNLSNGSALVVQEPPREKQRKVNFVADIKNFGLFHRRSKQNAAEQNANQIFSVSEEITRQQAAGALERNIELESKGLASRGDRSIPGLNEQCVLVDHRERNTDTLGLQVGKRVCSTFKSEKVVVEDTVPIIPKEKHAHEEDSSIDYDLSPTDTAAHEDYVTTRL
# [4] = NIH3T3 cell viability loss – ATP luminescence, mouse fibroblasts, counter-screen, dose response (AID 2010); assay type: functional, cell-based;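 further: cells exposed to compound for about 90 hours before reading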
# [5] = Trypanosoma cruzi growth suppression in host cells – NIH3T3 host cells, beta-gal luminescence, confirmation (AID 2044); assay type: functional, cell-based;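 further: intracellular parasites grown in NIH/3T3 mouse fibroblasts as host cells; luminescent beta-galactosidase reporter signal from transgenic T. cruzi replicating inside host cells; inhibitors lower the luminescence signal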
# H4 = test: Luminescence Cell-Based Dose Response HTS to Identify Activators of 5'UTR Stem-Loop Driven Prion Protein mRNA Translation in H4 Neuroglioblastoma Cells. [Related pubchem assays: 1829 (Project Summary), 1814 (Primary HTS)]; assay type: functional; settings: Homo sapiens
# [6] = Luminescence Cell-Based Dose Response HTS to Identify Activators of Luciferase Translation or Activity in H4 […] Cells. [Related pubchem assays: 1829 (Project Summary), 1814 (Primary HTS)]; assay type: functional
# Cytochrome P450 2C19 = Cytochrome P450 2C19 (Homo sapiens, UniProt P33261); test: Cytochrome panel assay with activity outcomes. Panel member name: p450-cyp2c19 Compounds with AC50 equal or less than 10 uM are considered active; assay type: functional; settings: read-out: AC50
# Cytochrome P450 2C19, sequence (P33261 whole entry): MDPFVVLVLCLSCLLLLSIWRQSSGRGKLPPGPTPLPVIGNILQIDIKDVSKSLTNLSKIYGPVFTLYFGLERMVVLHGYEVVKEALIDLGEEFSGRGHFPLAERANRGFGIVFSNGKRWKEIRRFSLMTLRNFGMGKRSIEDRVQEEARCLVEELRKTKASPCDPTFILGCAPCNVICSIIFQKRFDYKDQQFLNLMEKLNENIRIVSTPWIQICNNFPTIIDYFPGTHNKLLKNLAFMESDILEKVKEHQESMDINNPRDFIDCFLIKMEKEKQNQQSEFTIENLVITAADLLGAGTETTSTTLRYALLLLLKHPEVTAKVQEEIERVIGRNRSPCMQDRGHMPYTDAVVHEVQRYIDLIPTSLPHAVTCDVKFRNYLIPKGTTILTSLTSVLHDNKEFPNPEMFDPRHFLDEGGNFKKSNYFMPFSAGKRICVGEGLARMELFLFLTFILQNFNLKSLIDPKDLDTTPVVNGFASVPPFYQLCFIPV
# Cytochrome P450 3A4 = Cytochrome P450 3A4 (Homo sapiens, UniProt P08684);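 further: CYP3A4 tested as one member of a cytochrome P450 panel screen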
# Cytochrome P450 3A4, sequence (P08684 whole entry): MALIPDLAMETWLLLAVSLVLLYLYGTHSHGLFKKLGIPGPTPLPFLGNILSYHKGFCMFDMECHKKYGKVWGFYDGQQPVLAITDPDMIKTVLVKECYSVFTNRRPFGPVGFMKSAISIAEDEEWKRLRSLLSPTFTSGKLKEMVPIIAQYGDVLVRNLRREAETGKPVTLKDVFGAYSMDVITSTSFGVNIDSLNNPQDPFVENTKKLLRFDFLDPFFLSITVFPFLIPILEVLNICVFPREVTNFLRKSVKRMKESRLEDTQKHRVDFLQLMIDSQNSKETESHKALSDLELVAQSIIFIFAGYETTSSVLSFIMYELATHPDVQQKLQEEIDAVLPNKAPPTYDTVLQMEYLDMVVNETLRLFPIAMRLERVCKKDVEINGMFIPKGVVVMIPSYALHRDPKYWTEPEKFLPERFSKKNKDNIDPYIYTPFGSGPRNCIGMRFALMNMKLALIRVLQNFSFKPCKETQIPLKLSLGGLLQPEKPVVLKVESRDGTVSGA
# [7] = viability of uninfected HEp-2 cells – cell-based, HTS, cytotoxicity control for RSV inhibitor project, dose response (AID 2410); assay type: functional; settings: human respiratory syncytial virus
# [8] = target: T1, Heat shock factor protein 1; test: enhancement of HSF1-driven luciferase signal – cell-based, NIH3T3, luminescence, dose retest, confirmation (AID 435004); assay type: functional;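 further: stress induced by proteasome inhibitor MG132 added 30 min after compound; luciferase reporter driven by HSF1 response element in NIH3T3 cells; actives raise luminescence as potentiators of the MG132 stress response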
smiles,measurement,setting,value
COc1cccc(NC(=O)N2CCCC2C(=O)NC(C)C)c1 (centres undefined),EC50,[1],152 µM (active)
Fc1ccccc1N=C(S)NN(Cc1ccccc1)c1ccccc1,IC50,Protein skinhead-1,> 100 µM (inactive)
CSc1nccn1CC(=O)Nc1ccc(F)cc1,AC50,[2],2.88 µM (active)
O=S(=O)(O)c1ccc(N2N=C(c3ccccc3)CC2c2ccccc2)cc1 (centres undefined),AC50,[2],10.9 µM (active)
CN1CC[C@]2(C)c3cc(O)ccc3N(C)[C@@H]12,AC50,Cytochrome P450 2D6,31.6 µM (inconclusive) and 12.6 µM (inconclusive)
same,AC50,Cytochrome P450 2C9,12.6 µM (inconclusive)
same,AC50,Cytochrome P450 1A2,15.8 µM (inconclusive) and 31.6 µM (inconclusive)
Cc1ccc(S(=O)(=O)Nc2nc(C)c(NC(=O)Nc3ccc(Cl)cc3Cl)s2)cc1,AC50,Cytochrome P450 2D6,28.2 µM (inconclusive)
COCCn1c(SCc2ccc(OC)c(F)c2)nc2ccccc2c1=O,EC50,[3],2.99 µM (active)
same,EC50,[4],31.8 µM (active)
same,EC50,[5],2.24 µM (active)
CCN(CC)c1ccc(NS(=O)(=O)c2cn(C)c(=O)n(C)c2=O)c(C)c1,AC50,[2],0.789 µM (active)
CCOC(=O)C1=C(CSc2nc(-c3ccccc3)ccc2C#N)OC(N)=C(C#N)C1c1ccccc1 (centres undefined),IC50,Protein skinhead-1,> 100 µM (inactive)
O=C(c1ccncc1)N1CCC2(CC1)CN(Cc1cc(C(F)(F)F)cc(C(F)(F)F)c1)C2,AC50,Cytochrome P450 2D6,31.6 µM (inconclusive)
COc1ccc2c(c1)OC/C(=C/c1cccs1)C2=O,IC50,Protein skinhead-1,28.7 µM (active)
CC(NS(=O)(=O)c1ccc(OCC(=O)N2CCOCC2)c(Cl)c1)c1ccccc1 (centres undefined),IC50,Protein skinhead-1,> 100 µM (inactive)
O=C(c1ccccc1-c1nc(-c2ccc(Cl)cc2)no1)N1CCCC1,EC50,H4,99.2 µM (active)
same,EC50,[6],8.33 µM (active)
CNC(=O)NC(=S)NC(=O)c1ccccc1Cl,EC50,[1],> 195 µM (not active)
CCC1CCc2c(c3ccccc3[nH]c2=O)O1 (centres undefined),AC50,Cytochrome P450 2D6,39.8 µM (inconclusive)
same,AC50,Cytochrome P450 2C19,17.8 µM (inconclusive)
CCOc1ccc(N2C(=O)c3cccnc3C2=O)cc1,AC50,Cytochrome P450 2D6,0.178 µM (inconclusive)
same,AC50,Cytochrome P450 2C9,7.94 µM (inconclusive)
COC(=O)c1cc(S(=O)(=O)NCCc2ccccc2)c[nH]1,EC50,[1],> 195 µM (not active)
CN(C)c1nccc(N(Cc2ccccc2)Cc2ccccc2)c1C#N,AC50,Cytochrome P450 2D6,10 µM (inconclusive)
O=c1cc(N2CCCCC2)c(-c2ccccc2)nn1Cc1ccccc1Cl,AC50,Cytochrome P450 2D6,28.2 µM (inconclusive)
O=c1c2ccccc2nc(-c2ccc(Br)cc2)n1Cc1ccccc1,AC50,Cytochrome P450 2D6,25.1 µM (inconclusive)
Fc1ccc(Cn2nnc(-c3ccc(CN4CCOCC4)cc3)n2)cc1,IC50,Protein skinhead-1,6.09 µM (active)
O=C(CC(c1ccccc1)c1ccccc1)NCC1CCCO1 (centres undefined),AC50,Cytochrome P450 2D6,11.2 µM (inconclusive)
same,AC50,Cytochrome P450 3A4,22.4 µM (inconclusive)
COc1ccc(O)c(-c2c(C)n[nH]c2-c2ccc(Cl)cc2)c1,EC50,[1],> 195 µM (not active)
CCCN1C2CCCC1CC(NC(=O)c1ccc(F)cc1)C2 (centres undefined),IC50,Protein skinhead-1,> 100 µM (inactive)
O=C(c1cccs1)N1CCN=C1SCc1cccnc1,AC50,[2],1.27 µM (active)
COc1ccc(NC(=O)C2Cc3ccccc3C(=O)O2)cc1 (centres undefined),EC50,[1],> 195 µM (not active)
COc1ccc2[nH]cc(CCNc3cc(-c4ccccc4C(F)(F)F)ncn3)c2c1,AC50,Cytochrome P450 2D6,20 µM (inconclusive)
same,AC50,Cytochrome P450 2C9,1 µM (inconclusive)
COc1ccc(-n2c(=O)c(-c3cc(F)cc(F)c3)nc3cnc(N4CCOCC4)nc32)cc1,AC50,Cytochrome P450 2D6,20 µM (inconclusive)
same,AC50,Cytochrome P450 1A2,15.8 µM (inconclusive)
same,AC50,Cytochrome P450 3A4,15.8 µM (inconclusive)
CC(=O)Nc1ccc(-c2nnc(SCC(=O)c3ccc4c(c3)Cc3ccccc3-4)n2C)cc1,AC50,Cytochrome P450 2D6,14.1 µM (inconclusive)
same,AC50,Cytochrome P450 2C19,6.31 µM (inconclusive)
CC[n+]1c(/C=C/c2cc([N+](=O)[O-])ccc2O)ccc2ccccc21,CC50,[7],36.9 µM (active)
same,EC50,[1],> 195 µM (not active)
CCC(C)(C)NC(=O)C(c1cccn1C)N(C(=O)Cn1nnc2ccccc21)c1ccc(OC)cc1OC (centres undefined),IC50,Protein skinhead-1,> 100 µM (inactive)
Cc1ccc(F)cc1N=C(S)NCCc1ccccc1,EC50,[1],> 195 µM (not active)
CN(C)CCN1C(=O)C2C(C(=O)Nc3cc(Cl)cc(Cl)c3)C3C=CC2(O3)C1C(=O)NC1CCCCC1 (centres undefined),EC50,[3],6.68 µM (active)
same,EC50,[8],> 260 µM (inactive)
Cc1ccc(S(=O)(=O)N(C)CC(=O)Nc2ccccc2N2CCCC2)cc1,AC50,[2],2.39 µM (active)
O=C(Nc1ccc2c(c1)CN(C(=O)Nc1ccc(F)cc1)CC2)c1ccccn1,IC50,Protein skinhead-1,> 100 µM (inactive)
O=C(CNC(=O)c1cccnc1)N/N=C/c1cc(Br)c(O)c(Br)c1,EC50,[1],> 195 µM (not active)
S=C(N/N=C1\CCc2ccccc21)NC1CCCCC1,EC50,[1],87.7 µM (active)
CN(/C(=N\S(=O)(=O)c1ccccc1)C(F)(F)F)c1ccccc1,EC50,[1],> 195 µM (not active)
O=C(Nc1ccccc1)c1c[nH]cn1,IC50,Protein skinhead-1,> 100 µM (inactive)
O=C1CCC(=O)N1c1ccc(CSc2nc3ccccc3[nH]2)cc1,AC50,[2],1.22 µM (active)
